{
  "source": "patent US10294202B2",
  "about": "“Pyrrolidinones as herbicides” (FMC Corporation, priority 2013, dated 2019)",
  "key": {"rice": {"tested_on": "rice", "test": "Test B flooded paddy test", "type": "in vivo, Oryza sativa", "details": "500 g ai/ha, Flood; scale of 0 to 100 where 0 is no effect and 100 is complete control", "method_in_brief": "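Scoring: visual, compared with untreated controls, 0 = no effect through 100 = complete control, taken 13 to 15 days after treatment in the greenhouse. Compounds had been added to paddy water over soil flooded 3 cm deep at the plants' 2-leaf stage.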"}, "blackgrass": {"tested_on": "blackgrass", "test": "Test C pre-/postemergence herbicide test", "type": "in vivo, Alopecurus myosuroides", "method_in_brief": "(§1)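 Pre-emergence: seeds sown in loam/sand blend and treated with compound in surfactant-containing solvent. Post-emergence: plants at 2–18 cm (1- to 4-leaf stage) in peat-based medium sprayed with the same formulation. Visual rating versus controls after 13–15 days in greenhouse, scale 0 (no effect) to 100 (complete control).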"}, "oilseed rape": {"tested_on": "oilseed rape", "test": "Test C pre-/postemergence herbicide test", "type": "in vivo, Brassica napus", "method_in_brief": "as §1"}, "giant foxtail": {"tested_on": "giant foxtail", "test": "Test A pre-/postemergence herbicide test", "type": "in vivo, Setaria faberii", "method_in_brief": "(§2)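 Seeds in loam–sand blend received preemergence directed soil spray; separately, plants 2–10 cm at one- to two-leaf stage received postemergence spray, both with test chemicals in non-phytotoxic solvent with surfactant. After ~10 days in greenhouse, injury rated visually against untreated controls, 0 (no effect) to 100 (complete control).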"}, "velvetleaf": {"tested_on": "velvetleaf", "test": "Test C pre-/postemergence herbicide test", "type": "in vivo, Abutilon theophrasti", "method_in_brief": "as §1"}, "foxtail, giant": {"tested_on": "foxtail, giant", "test": "Test C pre-/postemergence herbicide test", "type": "in vivo, Setaria faberii", "method_in_brief": "as §1"}, "barnyardgrass": {"tested_on": "barnyardgrass", "test": "Test A pre-/postemergence herbicide test", "type": "in vivo, Echinochloa crus-galli", "method_in_brief": "as §2"}, "nutsedge, yellow": {"tested_on": "nutsedge, yellow", "test": "Test C pre-/postemergence herbicide test", "type": "in vivo, Cyperus esculentus", "method_in_brief": "as §1"}, "johnsongrass": {"tested_on": "johnsongrass", "test": "Test C pre-/postemergence herbicide test", "type": "in vivo, Sorghum halepense", "method_in_brief": "as §1"}, "corn": {"tested_on": "corn", "test": "Test A pre-/postemergence herbicide test", "type": "in vivo, Zea mays", "details": "Postemergence", "method_in_brief": "as §2"}, "pigweed": {"tested_on": "pigweed", "test": "Test A pre-/postemergence herbicide test", "type": "in vivo, Amaranthus retroflexus", "method_in_brief": "as §2"}, "[1]": {"details": "Postemergence, 31 g ai/ha, scale 0 to 100 (0 no effect, 100 complete control)"}, "[2]": {"details": "Postemergence, 62 g ai/ha, scale 0 (no effect) to 100 (complete control)"}, "[3]": {"details": "Postemergence, 125 g ai/ha, scale 0 to 100 (0 no effect, 100 complete control)"}, "[4]": {"details": "Postemergence, 250 g ai/ha, scale 0 to 100 (0 no effect, 100 complete control)"}, "[5]": {"details": "Preemergence, 31 g ai/ha, scale 0 to 100, 0 is no effect and 100 is complete control"}, "[6]": {"details": "Preemergence, 62 g ai/ha, scale 0 to 100 (0 no effect, 100 complete control)"}, "[7]": {"details": "Preemergence, 125 g ai/ha, scale 0 to 100"}, "[8]": {"details": "Postemergence, 125 g ai/ha, visual rating on 0 to 100 scale (0 no effect, 100 complete control), approx. 10 days"}, "[9]": {"details": "Postemergence, 500 g ai/ha, 0 to 100 scale (0 no effect, 100 complete control)"}, "[10]": {"details": "Preemergence, 125 g ai/ha, 0 to 100 scale where 0 is no effect and 100 is complete control"}, "[11]": {"details": "Preemergence, 500 g ai/ha, visual rating on 0 to 100 scale (0 no effect, 100 complete control)"}},
  "data": [
    {"smiles": "O=C1NCC(c2cccc(OC(F)F)c2)C1C(=O)Nc1ccc(F)c(F)c1F", "note": "(stereo not shown) [Compound 325]", "values": [
      {"measurement": "Plant response rating, Rice", "setting": "rice", "result": 20},
      {"measurement": "Plant response rating, Blackgrass", "setting": "blackgrass; [1]", "result": 0},
      {"measurement": "Plant response rating, Blackgrass", "setting": "blackgrass; [2]", "result": 0},
      {"measurement": "Plant response rating, Blackgrass", "setting": "blackgrass; [3]", "result": 0},
      {"measurement": "Plant response rating, Blackgrass", "setting": "blackgrass; [4]", "result": 35},
      {"measurement": "Blackgrass plant response rating", "setting": "blackgrass; [5]", "result": 5},
      {"measurement": "Blackgrass plant response rating", "setting": "blackgrass; [6]", "result": 50},
      {"measurement": "Plant response rating, Blackgrass", "setting": "blackgrass; [7]", "result": 70},
      {"measurement": "Plant response rating (scale of 0 to 100), Blackgrass", "setting": "blackgrass; Preemergence, 250 g ai/ha", "result": 85},
      {"measurement": "Plant response rating, Oilseed Rape", "setting": "oilseed rape; [1]", "result": 0},
      {"measurement": "Plant response rating, Oilseed Rape", "setting": "oilseed rape; [2]", "result": 0},
      {"measurement": "Plant response rating, Oilseed Rape", "setting": "oilseed rape; [3]", "result": 50},
      {"measurement": "Plant response rating, Oilseed Rape", "setting": "oilseed rape; [4]", "result": 60},
      {"measurement": "Oilseed Rape plant response rating", "setting": "oilseed rape; [5]", "result": 0},
      {"measurement": "Oilseed Rape plant response rating", "setting": "oilseed rape; [6]", "result": 65},
      {"measurement": "Plant response rating, Oilseed Rape", "setting": "oilseed rape; [7]", "result": 85},
      {"measurement": "Plant response rating (scale of 0 to 100), Oilseed Rape", "setting": "oilseed rape; Preemergence, 250 g ai/ha", "result": 90},
      {"measurement": "Plant response rating, Foxtail, Giant", "setting": "giant foxtail; [8]", "result": 90},
      {"measurement": "Plant response rating, Foxtail, Giant", "setting": "giant foxtail; [9]", "result": 90},
      {"measurement": "Plant response rating, Foxtail, Giant", "setting": "giant foxtail; [10]", "result": 90},
      {"measurement": "Foxtail, Giant plant response rating", "setting": "giant foxtail; [11]", "result": 90},
      {"measurement": "Plant response rating, Velvetleaf", "setting": "velvetleaf; [1]", "result": 0},
      {"measurement": "Plant response rating, Velvetleaf", "setting": "velvetleaf; [2]", "result": 15},
      {"measurement": "Plant response rating, Velvetleaf", "setting": "velvetleaf; [3]", "result": 20},
      {"measurement": "Plant response rating, Velvetleaf", "setting": "velvetleaf; [4]", "result": 40},
      {"measurement": "Velvetleaf plant response rating", "setting": "velvetleaf; [6]", "result": 35},
      {"measurement": "Plant response rating, Velvetleaf", "setting": "velvetleaf; [7]", "result": 55},
      {"measurement": "Plant response rating, Foxtail, Giant", "setting": "foxtail, giant; [1]", "result": 0},
      {"measurement": "Plant response rating, Foxtail, Giant", "setting": "foxtail, giant; [2]", "result": 35},
      {"measurement": "Plant response rating, Foxtail, Giant", "setting": "foxtail, giant; [3]", "result": 65},
      {"measurement": "Plant response rating, Foxtail, Giant", "setting": "foxtail, giant; [4]", "result": 75},
      {"measurement": "Foxtail, Giant plant response rating", "setting": "foxtail, giant; [5]", "result": 90},
      {"measurement": "Foxtail, Giant plant response rating", "setting": "foxtail, giant; [6]", "result": 95},
      {"measurement": "Plant response rating, Foxtail, Giant", "setting": "foxtail, giant; [7]", "result": 98},
      {"measurement": "Plant response rating (scale of 0 to 100), Foxtail, Giant", "setting": "foxtail, giant; Preemergence, 250 g ai/ha", "result": 95},
      {"measurement": "Plant response rating, Barnyardgrass", "setting": "barnyardgrass; [8]", "result": 90},
      {"measurement": "Plant response rating, Barnyardgrass", "setting": "barnyardgrass; [9]", "result": 90},
      {"measurement": "Plant response rating, Barnyardgrass", "setting": "barnyardgrass; [10]", "result": 90},
      {"measurement": "Barnyardgrass plant response rating", "setting": "barnyardgrass; [11]", "result": 90},
      {"measurement": "Plant response rating, Nutsedge, Yellow", "setting": "nutsedge, yellow; [1]", "result": 0},
      {"measurement": "Plant response rating, Nutsedge, Yellow", "setting": "nutsedge, yellow; [2]", "result": 0},
      {"measurement": "Plant response rating, Nutsedge, Yellow", "setting": "nutsedge, yellow; [3]", "result": 0},
      {"measurement": "Plant response rating, Nutsedge, Yellow", "setting": "nutsedge, yellow; [4]", "result": 0},
      {"measurement": "Nutsedge, Yellow plant response rating", "setting": "nutsedge, yellow; [5]", "result": 0},
      {"measurement": "Nutsedge, Yellow plant response rating", "setting": "nutsedge, yellow; [6]", "result": 0},
      {"measurement": "Plant response rating, Nutsedge, Yellow", "setting": "nutsedge, yellow; [7]", "result": 0},
      {"measurement": "Plant response rating (scale of 0 to 100), Nutsedge, Yellow", "setting": "nutsedge, yellow; Preemergence, 250 g ai/ha", "result": 0},
      {"measurement": "Plant response rating, Johnsongrass", "setting": "johnsongrass; [1]", "result": 0},
      {"measurement": "Plant response rating, Johnsongrass", "setting": "johnsongrass; [2]", "result": 0},
      {"measurement": "Plant response rating, Johnsongrass", "setting": "johnsongrass; [3]", "result": 0},
      {"measurement": "Plant response rating, Johnsongrass", "setting": "johnsongrass; [4]", "result": 0},
      {"measurement": "Johnsongrass plant response rating", "setting": "johnsongrass; [5]", "result": 20},
      {"measurement": "Johnsongrass plant response rating", "setting": "johnsongrass; [6]", "result": 35},
      {"measurement": "Plant response rating, Johnsongrass", "setting": "johnsongrass; [7]", "result": 75},
      {"measurement": "Plant response rating (scale of 0 to 100), Johnsongrass", "setting": "johnsongrass; Preemergence, 250 g ai/ha", "result": 75},
      {"measurement": "Plant response rating, Corn", "setting": "corn; 125 g ai/ha, visual rating on 0 to 100 scale (0 no effect, 100 complete control), approx. 10 days", "result": 80},
      {"measurement": "Plant response rating, Corn", "setting": "corn; 500 g ai/ha, 0 to 100 scale (0 no effect, 100 complete control)", "result": 80},
      {"measurement": "Plant response rating, Pigweed", "setting": "pigweed; [8]", "result": 40},
      {"measurement": "Plant response rating, Pigweed", "setting": "pigweed; [9]", "result": 50},
      {"measurement": "Plant response rating, Pigweed", "setting": "pigweed; [10]", "result": 30},
      {"measurement": "Pigweed plant response rating", "setting": "pigweed; [11]", "result": 60}
    ]}
  ]
}
